Key:
Haemonchus contortus [1] = test: Method A: Haemonchus contortus L1 larval development/motility screen in microtitre plate; type: cell-based; details: 96 h, read-out: motility inhibition
Haemonchus contortus [2] = test: Method E: Haemonchus contortus in vivo in Mongolian jirds; details: oral gavage, 5 mg/kg, necropsy 3 days after treatment
Protocol: Method to test activity of compounds against Haemonchus contortus in vivo in Mongolian jirds (Meriones unguiculatus).
(§1) Mongolian jirds, at least five weeks old, that have been immunosuppressed were artificially infected with ensheathed Haemonchus contortus third instar larvae. Six days after infection, the jirds were treated by oral gavage with the test compounds, dissolved in a mixture of DMSO/corn oil, at doses of 5 mg/kg. Jirds treated only with the placebo (DMSO/corn oil carrier) served as controls. On day 9 (3 days after treatment) the jirds were euthanized and necropsied for recovery of parasites from the stomach. Efficacy was calculated as the average % reduction in the number of worms in each test group compared with the average number of worms from the control group. Compound 6 provided a 100% reduction in nematode infestation in Mongolian jirds treated by oral gavage with the test article at a dose of 5 mg/kg.

[3] = system: Trichostrongylus colubriformis; test: Method F: Trichostrongylus colubriformis in vivo in Mongolian jirds; details: oral gavage, 5 mg/kg, necropsy 3 days after treatment
Protocol: as §1, with “Method to test activity of compounds against Trichostrongylus colubriformis in vivo in Mongolian jirds (Meriones unguiculatus). Mongolian jirds,” for “Mongolian jirds,”, “with ensheathed Trichostrongylus colubriformis third instar” for “with ensheathed Haemonchus contortus third instar”, “doses of […]. Jirds” for “doses of 5 mg/kg. Jirds”, “provided a 99% reduction in” for “provided a 100% reduction in”

[4] = human, Caco-2, pH 6.5
Protocol: Permeability of Compounds.
An in vitro model utilizing Caco-2/TC7 cells is employed to assess the permeability characteristics of new chemical entities (NCEs).
The permeability studies were performed under standard conditions in the apical to basolateral (A→B) direction with a pH gradient and a BSA gradient (standard apical medium (0.5% BSA at pH 6.5)/standard basal medium (5% BSA at pH 7.4)); conditions that most closely reflect the conditions in the in vivo situation. Samples were deproteinized by the addition of 400 μl acetonitrile to 200 μl sample, followed by a 20-minute centrifugation at 1730 g. Compound solubilisation: compound solutions at final concentrations of 20 μM were prepared following dilutions of stock solutions (starting from 10 mM in DMSO) in HBSS. Final concentration of DMSO was adjusted to 1%. Analytical conditions: Supernatants recovered following centrifugation were analysed by LC/MS/MS using a reverse phase column and the mobile phases delivered at 0.3 ml/minute in a gradient: water (A) and acetonitrile (B) (each with 0.1% formic acid).
Every experiment (n) represents the mean of 3 filters per experiment.

[5] = system: microfilaria of Dirofilaria immitis; test: Method C: microfilaria of Dirofilaria immitis motility screen; type: cell-based; details: 24 h, read-out: inhibition of the microfilaria's motility
[6] = system: anthelmintic-resistant isolate of Haemonchus contortus; test: Method B: screen against anthelmintic-resistant (benzimidazole-resistant) isolate of Haemonchus contortus; details: benzimidazole-resistant H. contortus isolate
From the text: The conditions described in method A were used against an isolate of H. contortus found to be functionally resistant against the benzimidazole class of anthelmintics (e.g. 127-fold resistance to thiabendazole).

SMILES | inhibition at 5 µM (Haemonchus contortus [1]) | reduction in nematode infestation (Haemonchus contortus [2]) | reduction in nematode infestation [3] | Papp A→B at 20 μM [4] | inhibition at 10 µM [5] | resistance of the isolate to thiabendazole [6] | inhibition at 5 ppm [5]
N#Cc1ccc(NC2CCC(Oc3cncc(N4CCN(c5ccc(C(F)(F)F)cn5)CC4)c3)CC2)cc1C(F)(F)F (centres unmarked) [Compound 6, 4-[[4-[(5-[4-[5-(trifluoromethyl)pyridin-2-yl]piperazin-1-yl]pyridin-3-yl)oxy]cyclohexyl]amino]-2-(trifluoromethyl)benzonitrile] | ≥ 90% | 100% | 99% | 0.64 ×10⁻⁶ cm/s |  |  | 
O=[N+]([O-])c1ccc(N[C@H]2CC[C@H](Oc3cncc(N4CCN(CC5CCCC5)CC4)c3)CC2)cc1C(F)(F)F [Compound 27] | ≥ 90% |  |  | 2.33 ×10⁻⁶ cm/s | ≥ 90% |  | 
c1ccc2[nH]c(-c3cscn3)nc2c1 [thiabendazole] |  |  |  |  |  | 127 fold | 
O=[N+]([O-])c1ccc(N[C@H]2CC[C@H](Oc3ccnc(N4CCN(CC5CCCC5)CC4)c3)CC2)cc1C(F)(F)F [Compound 37, 4-nitro-N-[4-([2-[4-(cyclopentylmethyl)piperazin-1-yl]pyridin-4-yl]oxy)cyclohexyl]-3-(trifluoromethyl)] | ≥ 90% |  |  | 2.55 ×10⁻⁶ cm/s | ≥ 90% |  | 
CCCCC(=O)N1CCN(c2ccnc(O[C@H]3CC[C@H](Nc4ccc([N+](=O)[O-])c(C(F)(F)F)c4)CC3)c2)CC1 [Compound 17] | ≥ 90% |  |  | 3.99 ×10⁻⁶ cm/s |  |  | ≥ 90%
O=C(Cc1ccc(F)cc1)N1CCN(c2ccnc(O[C@H]3CC[C@H](Nc4ccc([N+](=O)[O-])c(C(F)(F)F)c4)CC3)c2)CC1 [Compound 23] | ≥ 90% |  |  | 1.09 ×10⁻⁶ cm/s | ≥ 90% |  | 
O=C(CCC(F)(F)F)N1CCN(c2cc(O[C@H]3CC[C@H](Nc4ccc([N+](=O)[O-])c(C(F)(F)F)c4)CC3)ccn2)CC1 [Compound 24] | ≥ 90% |  |  | 4.46 ×10⁻⁶ cm/s | ≥ 90% |  | 
O=C(CC1CCCCC1)N1CCN(c2cc(O[C@H]3CC[C@H](Nc4ccc([N+](=O)[O-])c(C(F)(F)F)c4)CC3)ccn2)CC1 [Compound 14] | ≥ 90% |  |  | 2.28 ×10⁻⁶ cm/s | ≥ 90% |  | 
CC(C)(C)CC(=O)N1CCN(c2cncc(O[C@H]3CC[C@H](Nc4ccc([N+](=O)[O-])c(C(F)(F)F)c4)CC3)c2)CC1 [Compound 35] | ≥ 90% |  |  | 4.99 ×10⁻⁶ cm/s |  |  | ≥ 90%

From patent US10597364B2, “Anthelmintic compounds, compositions and method of using thereof” (priority 2015, dated 2020)
